The source of these data is patent publication US20090162313A1, “High-Molecular Weight Conjugate of Podophyllotoxins” (priority 2006, published 2009).

Series [1] in a line: Relative body weight of tumor-bearing mice, Test Example 3. The settings on record: 90 mg/kg once i.v., female CDF1 mice. The series is classed as in vivo, mouse. On the procedure: (§1) Mouse colon cancer, Colon 26, maintained by serial subcutaneous subculture in mice, was minced into about 2-mm square fragments, and the fragments were subcutaneously transplanted on the dorsal part of female CDF1 mice with a trocar. […] The control group means a group to which the drug was not administered. Compound 1 was dissolved in a 5% glucose solution for injection and used. As for […] injection (manufactured by Nippon Kayaku Co., Ltd.) was diluted with a 5% glucose solution for injection and used. After the administration, the major axis (L mm) and the minor axis (W mm) of the tumor were measured using a caliper, and the tumor volume was calculated by the formula: (L×W^2)/2. […] The changes of the body weight during this period of time is also shown in Table 1 as the relative body weight based on the body weight on the day of administration.

Series [2] relates to Mouse colon cancer, Colon 26. Put plainly: Antitumor effect of compound 1, subcutaneously transplanted tumor, relative tumor volume. The format is in vivo. The settings on record: 90 mg/kg once i.v., female CDF1 mice. On the procedure:
as §1

Series [3] deals with Mouse colon cancer, Colon 26. Description: Antitumor action of compounds 2 and 3, subcutaneously transplanted tumor, relative tumor volume. The series is classed as in vivo. Conditions: 15 mg/kg i.v. for 5 consecutive days (total 75 mg/kg), female CDF1 mice. As for the experimental part: (§2) Mouse colon cancer, Colon 26, maintained by serial subcutaneous subculture in mice, was minced into about 2 mm-square fragments, and the fragments were transplanted subcutaneously on the dorsal part of female CDF1 mice with a trocar. […] The control group means a group to which the drug was not administered. POD, purchased from Sigma-Aldrich Company, was diluted with dimethylsulfoxide and a 5% glucose solution for injection and administered for 5 consecutive days from the administration initiation day. After the administration, the major axis (L mm) and the minor axis (W mm) of the tumor were measured using a caliper, and the tumor volume was calculated by the formula: (L×W^2)/2. […] The changes of the body weight during this period of time is also shown in Table 2 as the relative body weight based on the body weight on the day of administration.

Series [4] in a line: Relative body weight of tumor-bearing mice, Test Example 4. The series is classed as in vivo, mouse. Conditions: 15 mg/kg i.v. for 5 consecutive days (total 75 mg/kg), female CDF1 mice. On the procedure: as §2
[5] abbreviates: day 0 after administration initiation day.
The mark [6] stands for this setting: day 3 after administration initiation day.
[7] abbreviates: day 5 after administration initiation day.
[8] abbreviates: day 8 after administration initiation day.

For `COc1cc([C@@H]2c3cc4c(cc3[C@@H](O[C@@H]3O[C@@H]5CO[C@@H](C)O[C@H]5[C@H](O)[C@H]3O)[C@H]3COC(=O)[C@H]23)OCO4)cc(OC)c1O` [ETP, etoposide], the Relative body weight stood at 1.00 in series [1] (day 0 after administration), 0.87 in series [1] (day 4 after administration) and 0.97 in series [1] (day 8 after administration). The Relative tumor volume in series [2] (day 0 after administration) worked out at 1.00; in series [2] (day 4 after administration), 1.17; in series [2] (day 8 after administration), 3.79.
For `COc1cc([C@@H]2c3cc4c(cc3[C@H](O)[C@H]3COC(=O)[C@H]23)OCO4)cc(OC)c1OC` [POD, podophyllotoxin], the Relative tumor volume in series [3] (setting [5]) was determined as 1.00; in series [3] (setting [6]), 1.58; in series [3] (setting [7]), 1.79; in series [3] (setting [8]), 6.08. Besides, the Relative body weight in series [4] (setting [5]) amounted to 1.00; in series [4] (setting [6]) it was 1.01; in series [4] (setting [7]), 0.96; in series [4] (setting [8]), 0.98.
